# Assay results: patent US11534377B2, “Hair growth agent” (KOBAYASHI PHARMACEUTICAL CO., LTD., priority 2016, dated 2022)
# Tests used:
# [1] = tested on: transplanted mice (hair follicles of haired mice transplanted into the back of nude mice); assay: Hair shaft growth in nude mice transplanted with hair follicles of haired mice (Example 1); assay type: in vivo; conditions: for Hair shaft growth rate: topical 4 times per day
# Description: Hair follicles (surgically prepared) of haired mice were transplanted into the back of nude mice (from Sankyo Labo Service Corporation, Inc.) to produce transplanted mice manipulated such that each hair can be distinguished and a plurality of hair cycles can be observed. First, a 50% ethanol aqueous solution (12.5 μl, not containing the agent) was applied to the transplanted mice 4 times per day during new hair growth in the first hair cycle to obtain reference data of a hair cycle. After the hair had shed following the end of the first hair cycle, a 50% ethanol aqueous solution (12.5 μl) containing a predetermined amount of the agent was applied to the mice 4 times per day to obtain data on effects of the agent. After the hair had shed following the end of the second hair cycle, a 50% ethanol aqueous solution (12.5 μl) containing the agent in the same amount as that in the second hair cycle was applied to the mice in a similar manner to the second hair cycle to obtain reproducibility data on effects of the agent. As the agent, D-chiro-inositol (from Wako Pure Chemical Industries Ltd.) and its stereoisomers as chiro-inositol, L-chiro-inositol (from Tokyo Chemical Industry Co., Ltd.), myo-inositol (from Wako Pure Chemical Industries Ltd.), allo-inositol (cis-1,2,3,4-trans-5,6-cyclohexaneheaxol) (from Tokyo Chemical Industry Co., Ltd.), epi-inositol (cis-1,2,3,4,5-trans-6-cyclohexanehexaol) (from Tokyo Chemical Industry Co., Ltd.), muco-inositol (cis-1,2,4,5-trans-3,6-cyclohexanehexaol) (from Tokyo Chemical Industry Co., Ltd.), and scyllo-inositol (cis-1,3,5-trans-2,4,6-cyclohexanehexaol) (from Tokyo Chemical Industry Co., Ltd.) were used. For each agent solution, the lengths of hair shafts were measured every 2 to 3 days, an average length of hair shafts that changed day by day was plotted as one dot at each time point in a graph, and a similar plotting was repeated for 3 to 4 mice. The results were shown in Tables 1 to 14 and FIGS. 1 to 14.
# [2] = tested on: hair papilla cell spheroids; assay: Hair papilla cell proliferation test by three-dimensional culture (Example 6); assay type: cell-based, C57BL/6N mouse; conditions: final concentrations 0.05 wt %, 0.1 wt %, and 1 wt %, cultured for 3 days; FIG. 19
# Description: In this Example, hair papilla cells prepared in a similar manner to Example 5 were seeded in a 96-well U-bottom microplate for cell culture (from Sumitomo Bakelite Co., Ltd.) at 6,000 cells/well and centrifuged with a plate centrifuge at room temperature and at a rotating speed of 1,000 rpm for 1 minute to yield three-dimensional hair papilla cell spheroids. The spheroids were cultured for 3 days by using each of test solutions A1 to A3 that were hair papilla cell culture media to which D-chiro-inositol dissolved in PBS was added at a final concentration of 0.05 wt %, 0.1 wt %, or 1 wt %; test solutions B1 to B3 that were hair papilla cell culture media to which myo-inositol dissolved in PBS was added at a final concentration of 0.05 wt %, 0.1 wt %, or 1 wt %; and a negative control that was a hair papilla cell culture medium to which PBS alone was added. The spheroids after culturing for 3 days were imaged by using a VHX2000 digital microscope (Keyence Corporation), and the area of the spheroids was calculated by using a digital microscope analysis tool. By calculating a spheroid area increase rate in the test solutions A1 to A3 and B1 to B3, relative to an area increase rate in the negative control as 100%, the proliferation of hair papilla cells in conditions further close to in vivo condition was quantified.
# [3] = tested on: crab-eating macaque (Macaca fascicularis); assay: New hair growth test in monkey (Example 4); assay type: in vivo; conditions: 1 wt % in 50% ethanol, 8 weeks
# Text: A crab-eating macaque (Macaca fascicularis) is a monkey (class: Mammalia, order: Primates, family: Cercopithecidae, genus: Macaca) that has many similarities to humans, such as the morphology of the temporomandibular joint, and is frequently employed as a laboratory animal for morphological studies and medication studies due to its easy breeding and rearing. The crab-eating macaque is known for the replacement of the body hair in a six-month cycle in a year. Among aged female monkeys that had babies repeatedly and aged male monkeys of low social status, individuals with observed symptoms of hair thinning or sparse hair emerge with low frequency. […] In this Example, to an aged crab-eating macaque (19 years of age, male) having sparse body hair of the head, a test solution A in which D-chiro-inositol (from Wako Pure Chemical Industries Ltd.) was dissolved in 50% ethanol at a concentration of 1 wt % and a test solution B in which myo-inositol was dissolved in 50% ethanol at a concentration of 1 wt % were applied every day to about 4 cm^2-sparse hair regions (2 cm×2 cm) in both left and right sides across the median line of the head of the macaque. The application (once/day, 150 μl) was performed over 8 weeks, and 50% ethanol was applied as a negative control. At the end of 8 weeks, hair shafts in the applied regions were cut with hair clippers while leaving 2 to 3 mm from pores toward the outside of the body, and the total number of hair protruded from the pores in the applied regions was counted. A new hair growth rate was calculated as an increase rate in the number of hair at the end of 8 weeks, relative to the number of hair protruded from pores in the same regions before the application at the start of the test as 100%.
# [4] = 1 wt %, second hair cycle vs first hair cycle (vehicle)
# [5] = 1 wt %, third hair cycle vs first hair cycle (vehicle)
# [6] = 5 wt %, second hair cycle vs first hair cycle (vehicle)
# [7] = 5 wt %, third hair cycle vs first hair cycle (vehicle)
# [8] = 10 wt %, second hair cycle vs first hair cycle (vehicle)
# [9] = 10 wt %, third hair cycle vs first hair cycle (vehicle)
compound,measurement,setting,value
OC1C(O)C(O)C(O)C(O)C1O [D-chiro-inositol],"Hair shaft growth rate and hair shaft maximum length, difference from the reference data",[1]; 0.01 wt %,marginally significant differences
same,Hair shaft growth rate,"[1]; 0.01 wt % in 50% ethanol, second hair cycle",0.30 ± 0.03 mm/day
same,Hair shaft growth rate,"[1]; 0.01 wt % in 50% ethanol, third hair cycle (reproducibility)",0.40 ± 0.06 mm/day
same,Hair shaft maximum length,"[1]; 0.01 wt %, second hair cycle",4.8 ± 0.4 mm
same,Hair shaft maximum length,"[1]; 0.01 wt %, third hair cycle (reproducibility)",4.7 ± 0.3 mm
same,Hair shaft growth rate,"[1]; 0.1 wt % in 50% ethanol, second hair cycle",0.30 ± 0.03 mm/day
same,Hair shaft growth rate,"[1]; 0.1 wt % in 50% ethanol, third hair cycle (reproducibility)",0.40 ± 0.06 mm/day
same,Hair growth activity,"[1]; 0.1 wt %, growth rate not significantly different, maximum length increased significantly in third hair cycle",hair growth activity was shown
same,Hair shaft maximum length,"[1]; 0.1 wt %, second hair cycle",4.7 ± 0.4 mm
same,Hair shaft maximum length relative to reference data,"[1]; 0.1 wt %, second hair cycle vs first hair cycle (vehicle)",101%
same,Hair shaft maximum length,"[1]; 0.1 wt %, third hair cycle (reproducibility)",4.8 ± 0.4 mm
same,Hair shaft maximum length relative to reference data,"[1]; 0.1 wt %, third hair cycle vs first hair cycle (vehicle)",105%
same,Hair shaft growth rate,"[1]; 1 wt % in 50% ethanol, second hair cycle",0.47 ± 0.01 mm/day
same,Hair shaft growth rate,"[1]; 1 wt % in 50% ethanol, third hair cycle (reproducibility)",0.48 ± 0.04 mm/day
same,Hair shaft maximum length,"[1]; 1 wt %, second hair cycle",5.7 ± 0.4 mm
same,Hair shaft growth rate relative to reference data,[1]; [4],121%
same,Hair shaft maximum length relative to reference data,[1]; [4],110%
same,Hair shaft maximum length,"[1]; 1 wt %, third hair cycle (reproducibility)",6.0 ± 0.4 mm
same,Hair shaft growth rate relative to reference data,[1]; [5],123%
same,Hair shaft maximum length relative to reference data,[1]; [5],116%
same,Hair shaft growth rate,"[1]; 5 wt % in 50% ethanol, second hair cycle",0.46 ± 0.04 mm/day
same,Hair shaft growth rate,"[1]; 5 wt % in 50% ethanol, third hair cycle (reproducibility)",0.49 ± 0.07 mm/day
same,Hair shaft maximum length,"[1]; 5 wt %, second hair cycle",5.1 ± 0.3 mm
same,Hair shaft growth rate relative to reference data,[1]; [6],128%
same,Hair shaft maximum length relative to reference data,[1]; [6],116%
same,Hair shaft maximum length,"[1]; 5 wt %, third hair cycle (reproducibility)",5.1 ± 0.4 mm
same,Hair shaft growth rate relative to reference data,[1]; [7],136%
same,Hair shaft maximum length relative to reference data,[1]; [7],116%
same,Hair shaft growth rate,"[1]; 10 wt % in 50% ethanol, second hair cycle",0.46 ± 0.06 mm/day
same,Hair shaft growth rate,"[1]; 10 wt % in 50% ethanol, third hair cycle (reproducibility)",0.63 ± 0.05 mm/day
same,Hair shaft growth rate and hair shaft maximum length relative to the reference data,"[1]; 10 wt %, 5 wt %, or 1 wt % as the agent",increased significantly
same,Hair shaft maximum length,"[1]; 10 wt %, second hair cycle",5.6 ± 0.5 mm
same,Hair shaft growth rate relative to reference data,[1]; [8],154%
same,Hair shaft maximum length relative to reference data,[1]; [8],142%
same,Hair shaft maximum length,"[1]; 10 wt %, third hair cycle (reproducibility)",5.9 ± 0.5 mm
same,Hair shaft growth rate relative to reference data,[1]; [9],210%
same,Hair shaft maximum length relative to reference data,[1]; [9],149%
same,Hair papilla cell spheroid area vs negative control,[2],increased significantly
same,Hair shaft thickness in applied region vs test solution B and negative control,[3]; data not shown,remarkably thicker
same,New hair growth rate,"[3]; once/day 150 μl, sparse hair region of head, number of hair before application = 100%",175.9%
